According to article PMC10604720, “Unraveling the Mechanism of Epichaperome Modulation by Zelavespib: Biochemical Insights on Target Occupancy and Extended Residence Time at the Site of Action” (Biomedicines, 2023):

Experiments:
[1] = parameters: method as in PMID 31668946; conditions: whole-body PET imaging, mice; cited from earlier work
[2] = test system: epichaperomes; assay: Epichaperome determination by native PAGE / SDS-PAGE immunoblotting of MDA-MB-468 tumors; assay type: in vivo, mouse
Procedure: For epichaperome analysis, tumors were cut into small pieces and homogenized in native lysis buffer (20 mM HEPES pH 7.5, 50 mM KCl, 5 mM MgCl2, 0.01% NP40, 20 mM Na2MoO4) containing protease and phosphatase inhibitors using BioMasher® II Micro Tissue Homogenizers (VWR, Radnor, PA, USA). Samples were left on ice for 30 min and then subjected to native PAGE analysis. Protein concentrations were determined using the BCA kit (Pierce, Waltham, MA, USA) according to the manufacturer’s instructions. Protein lysate (10–60 µg) was loaded onto 5.5% native gel and resolved at 4 °C, transferred to nitrocellulose membrane, and probed with the indicated primary antibodies: HSP90α (AB2928; RRID:AB_303423; 1:8000) from Abcam (Cambridge, UK), HOP (ADI-SRA-1500; RRID:AB_10618972; 1:1000) from Enzo and CDC37 (4793S; RRID:AB_10695539; 1:1000) from Cell Signaling (Danvers, MA, USA). Membranes were then incubated with a 1:5000 dilution of a peroxidase-conjugated corresponding secondary antibody. Detection was performed using the ECL Enhanced Chemiluminescence Detection System (Pierce™ ECL Western Blotting Substrate) according to the manufacturer’s instructions.
In cellular studies, it has been proposed that zelavespib, upon binding, becomes trapped inside the epichaperome assemblies, leading to the disassembly of epichaperomes into individual components. However, this biochemical mechanism’s impact on the residence time of zelavespib at the site of action remains poorly understood in vivo. To investigate this, we analyzed the epichaperome target in tumors at 30 h and 72 h post-zelavespib administration using non-denaturing electrophoresis (native PAGE) (Figure 4a–c).
Figure 4 Epichaperome modulation by zelavespib in MDA-MB-468 tumor-bearing mice. (a) native-PAGE (top) or SDS-PAGE (bottom) followed by immunoblotting of epichaperome components (i.e., constituent chaperones and co-chaperones) in MDA-MB-468 tumors. Tumor-bearing mice were injected with a single dose of 50 mg/kg zelavespib, and tumor analysis was performed after sacrificing the mice at 30 h and 72 h post-zelavespib administration (n = 5 mice per time-point). Gels, representative tumors. To account for tumor heterogeneity (i.e., MDA-MB-468 are aggressive tumors with highly proliferative periphery adjacent to areas of necrosis), several cuts from the same tumor were analyzed when tumor size permitted. β-actin and GAPDH, protein loading controls; black arrowhead, biochemical signature of folding HSP90 pools as detected by native PAGE separation and immunoblotting; red arrowhead, non-specific signal, LE, low exposure; HE, high exposure. (b) Graph, data are presented as means ± s.e.m., n = 7, one-way ANOVA with Dunnett’s post hoc of tumors as in a. Because HSP90 in epichaperomes was not well separated from the folding HSP90 pool, we performed epichaperome quantification using CDC37 in epichaperomes as a surrogate marker. (c) Cartoon showing the proposed biochemical mechanism in vivo. Initially, zelavespib becomes trapped when epichaperomes bound, a mechanism that results in epichaperome disassembly, with no change in the expression level of epichaperome constituents. We propose that the initial trapping stage of epichaperomes is a main contributing factor to the extended on-target residence time observed for this agent in clinical settings. Zelavespib’s residence time in tumors seems to be dictated by target disassembly kinetics rather than by frank drug–target unbinding kinetics.

[3] = parameters: method as in PMID 28808818; conditions: human patients, no dependency on dose level; cited from earlier work

CC(C)NCCCn1c(Sc2cc3c(cc2I)OCO3)nc2c(N)ncnc21 [zelavespib]
T1/2 in MDA-MB-468 tumors [1]: approximately 60 h
total chaperone levels on SDS-PAGE ([2]; 30 h post single 50 mg/kg): no corresponding alteration
increase in epichaperome signal on native PAGE compared to baseline ([2]; 30 h post single 50 mg/kg, CDC37 in epichaperomes as surrogate marker): ~2.29 fold
decrease of epichaperome levels compared to baseline ([2]; 72 h post single 50 mg/kg): approximately 1.8 fold
total chaperone levels on SDS-PAGE ([2]; 72 h post single 50 mg/kg): no observable change
decrease in epichaperome signal on native PAGE compared to 30 h ([2]; 72 h post single 50 mg/kg, CDC37 in epichaperomes as surrogate marker): approximately 4.15 fold
baseline epichaperome target remaining in tumors ([2]; 72 h post-zelavespib administration): approximately 24.09%
mean terminal half-life (T1/2) in the plasma [3]: 8.4 ± 3.6 h
